Ends that are not written are not given here.
Legend:
[1] = test system: mice infected with H3N2 influenza (A/x31) and challenged with poly I:C; assay: Model of ARDS associated to influenza A virus (IAV) infection with Poly I:C challenge, BAL cells, cytokines, lung viral titre; assay type: in vivo; settings: for Lymphocyte infiltration / Macrophage infiltration / Neutrophil infiltration: SEQ ID NO:1 80-800 μg/Kg iv q.d., Dex 10 mg/kg ip q.d.; for BAL Lymphocytes / BAL Macrophages / BAL Neutrophils: IAV/Poly I:C, 48 hrs after Poly I:C
Method: Mice were infected intranasally with a H3N2 strain of influenza (A/x31; 1×10^3 pfu). Three days after infection (time of peak viral load in the lung), animals received a dose of the viral mimetic polyinosinic-polycytidylic acid (poly I:C) or vehicle (PBS). Initially, dose response and time course studies with Poly I:C were done to establish conditions to show exacerbated lung inflammation after viral challenge (30 μg/animal and 48 hrs after Poly I:C challenge, respectively). SEQ ID NO:1 (80-800 μg/Kg) or vehicle were administered q.d. intravenously, 15 min before Poly I:C and 24 hrs later. Positive control Dexamethasone (Dex) was administered q.d. intraperitoneally (10 mg/kg) 1 hr before poly I:C challenge and 24 hrs later. 48 hrs after Poly I:C challenge, bronchoalveolar lavage (BAL) fluid was collected for differential cell counts and to measure cytokines using a multiplex immunoassay. Lung tissue was also collected to determine the viral titre.

[2] = test system: ovalbumin sensitised BALB/c mice; settings: mouse, in vivo
[3] = test system: HDM-induced pulmonary inflammation in Balb/C mice; assay: House dust mite (HDM)-induced pulmonary inflammation, 3 week i.n. HDM sensitisation model, BAL cell influx and cytokines; assay type: in vivo
Method: The objective of the study was to investigate the inhibitory effects of 3 different concentrations of the peptides in a saline solution on house dust mite (HDM)-induced pulmonary inflammation in Balb/C mice using a 3 week intranasal (i.n.) HDM sensitisation model. Results are shown for SEQ ID NO: 1. This study also looked at time point effects of SEQ ID NO: 1; in addition to 7 day post HDM challenge, a further time point, 4 h post a second HDM challenge (14 days after the first HDM challenge), was investigated to assess the effects of SEQ ID NO: 1 on remission of the allergic response.
A 3 week sensitisation and challenge model was applied where n=90 female Balb/C mice of approximately 6-8 weeks of age, approximately 20-25 g at start of study were used.
Following 11 days' acclimatisation all mice received 25 μg (total protein) HDM delivered i.n. 5 days/week for 3 weeks. HDM sensitisation was carried out each day of dosing and all intranasal dosing was performed where the mice were lightly anaesthetised using isoflurane.
Two weeks after the final HDM sensitisation dose all mice received a single 50 μL i.n. dose of a saline solution of the peptide or saline (0.9% w/v Sodium Chloride) vehicle solution. For SEQ ID NO: 1, dose solutions were 0.02 μg/kg, 0.2 μg/kg and 2 μg/kg. 15 minutes post peptide or saline vehicle dose all mice received a single 50 uL challenge administered i.n. of saline (0.9% w/v Sodium Chloride) or 100 μg HDM.
Some groups of animals received a second 50 μL i.n. administered dose of either saline or HDM 100 μg dose four weeks post sensitisation. Animals were then euthanised 4 hrs post second challenge (corresponding to 14 days post dosing).
The lungs were lavaged via the trachea with 1 mL of BAL (bronchoalveolar lavage) fluid. Samples were placed on wet ice (4° C.) and a differential cell count using a Sysmex XT2000i vet cell analyser was performed before the BAL sample was centrifuged at 1300 rcf for 7 min. A 200 μL BAL supernatant sample was put in a polypropylene U bottom 96 well plate and frozen at −20° C. for subsequent cytokine analysis using a standard MSD protocol.
Data analysis was performed using Graphpad PRISM 6. The statistical tests applied to determine statistical significance were analysis of variance (ANOVA) followed by a post-hoc test or an unpaired T-test.

[4] = test system: THP-1 differentiated macrophages; assay: IL-10 release from LPS stimulated macrophages (alphaLISA); assay type: cell-based, human; settings: 1 nM; top LPS doses 1-10 μg/mL; 6 hours after LPS stimulation
Method: THP-1 monocytic human cells were differentiated into macrophages with 50 nM phorbol myristate acetate for 48 hrs on a 96 well plate (100K cells/well).
Macrophages were stimulated with increasing concentrations of bacterial lipopolysaccharide (LPS 10^−6-10 μg/mL) in the presence or absence of SEQ ID NO:1 (1 nM). 30 μL of cell media was sampled at 6 hours after LPS stimulation and an IL-10 alphaLISA was run to measure the release of IL-10.

[5] = test system: animal model of allergic airway inflammation; settings: disclosed in WO2009/106819; cited from earlier work
[6] = test system: dendritic cells from CD14+ monocytes of healthy donors; assay type: cell-based, human; settings: 400 ng/mL + LPS/IFNγ
[7] = 48 hrs after Poly I:C challenge
[8] = 2 μg/kg i.n. single dose, 7 day time point, compared to saline/HDM
[9] = 2 μg/kg i.n. single dose, 14 day time point, 4 hrs post second HDM challenge, compared to saline/HDM
[10] = 2 μg/kg i.n., 14 days time point, compared to saline/HDM
[11] = 48 hrs after Poly I:C challenge, multiplex immunoassay

C[C@@H]1C[C@H]2[C@@H]3CCC4=CC(=O)C=C[C@]4(C)[C@@]3(F)[C@@H](O)C[C@]2(C)[C@@]1(O)C(=O)CO [Dex, Dexamethasone, reference compound]
Lymphocyte infiltration [1, 7]: no effect | Macrophage infiltration [1, 7]: no effect | Neutrophil infiltration [1, 7]: no effect | BAL Lymphocytes ([1]; 10 mg/kg ip): 9.4 ± 0.7 ×10^4/mL | BAL Macrophages ([1]; 10 mg/kg ip): 40.90 ± 0.2 ×10^4/mL | BAL Neutrophils ([1]; 10 mg/kg ip): 35.7 ± 2.6 ×10^4/mL

DGSVVVNKVSEL-NH2 [SEQ ID NO:3]
BAL eosinophil number [2]: significantly reduced | BAL total number of cells [2]: significantly reduced

DGSVVVNKVSELPAGHGLNVNTLSYGDLAAD-OH [SEQ ID NO:1]
BAL level of eosinophils [3, 8]: decreased level of neutrophils and eosinophils compared to saline/HDM although not statistically significant | BAL level of neutrophils [3, 8]: decreased level of neutrophils and eosinophils compared to saline/HDM although not statistically significant | BAL level of eosinophils [3, 9]: significantly decreased level | BAL level of lymphocytes [3, 9]: significantly decreased level | BAL level of neutrophils [3, 9]: significantly decreased level | BAL level of IL-4 [3, 10]: significant inhibition | BAL level of IL-5 [3, 10]: significant inhibition | BAL level of IL-13 [3, 10]: significant inhibition | BAL release of anti inflammatory cytokine IL-10 ([3]; 0.02, 0.2, 2 μg/kg i.n., 7 days time point, compared to saline/HDM): significant dose response release | BAL infiltrated macrophages ([3]; SEQ ID NO:1 treated groups (0.02-2 μg/kg i.n.), 7 day time point): trend to an increase of infiltrated macrophages | Lung viral titre [1, 7]: no significant effect | Lymphocyte infiltration [1, 7]: significantly and dose dependently reduced | Macrophage infiltration [1, 7]: significantly and dose dependently reduced | Neutrophil infiltration [1, 7]: significantly and dose dependently reduced | BAL G-CSF [1, 11]: significant suppression | BAL GM-CSF [1, 11]: significant suppression | BAL IFN-γ [1, 11]: significant suppression | BAL IL-1γ [1, 11]: significant suppression | BAL IL-6 [1, 11]: significant suppression | BAL IL-10 [1, 11]: significant suppression | BAL IL-17 [1, 11]: significant suppression | BAL KC/IL-8 [1, 11]: significant suppression | BAL MCP-1 [1, 11]: significant suppression | BAL MIP-1α [1, 11]: significant suppression | BAL MIP-3α [1, 11]: significant suppression | BAL TNF-α [1, 11]: significant suppression | BAL Lymphocytes ([1]; 80μ/kg iv): 7.4 ± 0.5 ×10^4/mL | BAL Macrophages ([1]; 80μ/kg iv): 40.3 ± 1.6 ×10^4/mL | BAL Neutrophils ([1]; 80μ/kg iv): 30 ± 2.2 ×10^4/mL | BAL Lymphocytes ([1]; 800μ/kg iv): 4.7 ± 0.5 ×10^4/mL | BAL Macrophages ([1]; 800μ/kg iv): 24.1 ± 1.6 ×10^4/mL | BAL Neutrophils ([1]; 800μ/kg iv): 15.3 ± 2.4 ×10^4/mL | Circulating levels of peptide [2]: no longer detectable | Intensity of the inflammatory response (BAL total cells, eosinophils) [2]: significantly reduced | Recruitment of eosinophils after OVA re-challenge [2]: efficient in inhibiting the recruitment of eosinophils | Release of IL-10 [4]: potentiated the release of IL-10 | Recruitment of eosinophils [5]: significantly reduce the recruitment of eosinophils | IL-10 gene expression (LPS/IFNγ suppression) [6]: significantly attenuate the LPS/IFNγ suppression of the IL-10 gene

Source: patent publication US12331088B2, “Method for the treatment of a relapsing-remitting condition” (Revolo Biotherapeutics Limited, priority 2017, dated 2025)
